Columns and labels:
[1] = target: Kappa-type opioid receptor (Cavia porcellus, UniProt P41144); assay: Binding affinity was determined towards opioid receptor kappa 1 using [3H]U-69593 as radioligand
[2] = target: T1, Mu-type opioid receptor (Cavia porcellus, UniProt P97266); assay: Binding affinity was determined towards opioid receptor mu1 using [3H]DAMGO as radioligand
[3] = Binding affinity was determined towards Opioid receptor delta 1 using [3H]naltrindole as radioligand
[4] = target: T1, Mu-type opioid receptor; assay: Binding affinity towards Opioid receptor mu 1 using [3H]DAMGO as radioligand

T1 sequence (P97266 whole entry): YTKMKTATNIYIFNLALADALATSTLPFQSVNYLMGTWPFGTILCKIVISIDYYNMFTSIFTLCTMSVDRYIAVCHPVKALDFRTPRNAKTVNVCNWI
Chain of Kappa-type opioid receptor (P41144 whole entry): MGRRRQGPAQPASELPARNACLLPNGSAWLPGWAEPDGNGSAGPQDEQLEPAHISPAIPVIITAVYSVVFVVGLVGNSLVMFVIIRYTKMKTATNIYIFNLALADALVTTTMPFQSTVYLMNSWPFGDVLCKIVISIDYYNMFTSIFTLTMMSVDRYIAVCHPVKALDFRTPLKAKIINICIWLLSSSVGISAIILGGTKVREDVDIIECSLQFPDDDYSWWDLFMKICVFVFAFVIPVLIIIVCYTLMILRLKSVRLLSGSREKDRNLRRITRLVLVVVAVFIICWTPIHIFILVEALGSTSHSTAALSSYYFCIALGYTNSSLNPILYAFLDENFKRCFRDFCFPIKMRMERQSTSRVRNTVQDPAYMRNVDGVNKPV

SMILES | Ki [1] | Ki [2] | Ki [3] | Ki [4]
C[C@H]1C2Cc3ccc(NC=O)cc3[C@@]1(C)CCN2CC1CC1 | 0.85 nM | 1.9 nM |  | 
CC(=O)Nc1ccc2c(c1)[C@@]1(C)CCN(CC3CC3)C(C2)[C@@H]1C | 130 nM | 240 nM |  | 
C[C@H]1C2Cc3ccc(C(N)=O)cc3[C@@]1(C)CCN2CC1CC1 |  |  | 8.3 nM | 
NC(=O)c1ccc2c3c1O[C@H]1C(=O)CC[C@@]4(O)[C@@H](C2)N(CC2CC2)CC[C@]314 |  |  | 110 nM | 
C[C@H]1[C@H]2Cc3ccc(Nc4ccccc4)cc3[C@@]1(C)CCN2CC1CC1 |  |  |  | ~1.3 nM
C[C@H]1[C@H]2Cc3ccc(O)cc3C1(C)CCN2CC1CC1 (single isomer, unassigned) [CYCLAZOCINE] |  |  | 1.1 nM | 
C[C@H]1[C@H]2Cc3ccc(NC=O)cc3[C@]1(C)CCN2CC1CC1 | 0.49 nM | 1.1 nM |  | 
C[C@@H]1C2Cc3ccc(NC=O)cc3C1(C)CCN2CC1CC1 (single isomer, unassigned) | 900 nM | 2300 nM |  | 
Nc1ccc2c3c1O[C@H]1C(=O)CC[C@@]4(O)[C@@H](C2)N(CC2CC2)CC[C@]314 | 5.8 nM | 5.6 nM |  | 
C[C@H]1C2Cc3ccc(N(C)C=O)cc3[C@@]1(C)CCN2CC1CC1 | 200 nM | 550 nM |  | 
CC[C@@]12CCN(CC3CC3)C(C(=O)c3ccc(C(N)=O)cc31)[C@@H]2C |  |  | 9.8 nM | 
C[C@H]1C2Cc3ccc(NCc4ccccc4)cc3[C@@]1(C)CCN2CC1CC1 |  |  |  | ~1.3 nM
C[C@H]1C2Cc3ccc(NC(=O)c4ccccc4)cc3[C@@]1(C)CCN2CC1CC1 | 820 nM | 570 nM |  | 
CC[C@@]12CCN(CC3CC3)C(C(=O)c3ccc(NC=O)cc31)[C@@H]2C | 1.2 nM | 6.1 nM |  | 
O=CNc1ccc2c3c1O[C@H]1C(=O)CC[C@@]4(O)[C@@H](C2)N(CC2CC2)CC[C@]314 | 4.2 nM | 8.3 nM |  | 

From ChEMBL document CHEMBL1136522, “Redefining the structure-activity relationships of 2,6-methano-3-benzazocines. Part 2: 8-formamidocyclazocine analogues” (Bioorg Med Chem Lett, 2003)
